# According to publication PMC11149885 (PLOS ONE, 2024):
# Read-outs that look alike come from different tables or passages of the source.
# Key:
# VEGFR3 = target: T1, VEGFR3 (Homo sapiens, UniProt P35916); experiment: Ten-dose IC50 measurement; format: biochemical; settings: 10μM ATP
# T1 construct: purchased Millipore Corporation (Dundee, Scotland) or Reaction Biology Corporation (contract assay)
# synthetic melanin = experiment: in vitro
# VEGFR2 = target: T2, VEGFR2 (Homo sapiens, UniProt P35968); settings: cited from earlier work
# T2 construct: purchased Millipore Corporation (Dundee, Scotland) or Reaction Biology Corporation (contract assay)
# VEGFR1 = VEGFR1 (Homo sapiens, UniProt P17948); experiment: Ten-dose IC50 measurement
# [1] = 634 ug, cited from earlier work
# T1 sequence (P35916 25-1363): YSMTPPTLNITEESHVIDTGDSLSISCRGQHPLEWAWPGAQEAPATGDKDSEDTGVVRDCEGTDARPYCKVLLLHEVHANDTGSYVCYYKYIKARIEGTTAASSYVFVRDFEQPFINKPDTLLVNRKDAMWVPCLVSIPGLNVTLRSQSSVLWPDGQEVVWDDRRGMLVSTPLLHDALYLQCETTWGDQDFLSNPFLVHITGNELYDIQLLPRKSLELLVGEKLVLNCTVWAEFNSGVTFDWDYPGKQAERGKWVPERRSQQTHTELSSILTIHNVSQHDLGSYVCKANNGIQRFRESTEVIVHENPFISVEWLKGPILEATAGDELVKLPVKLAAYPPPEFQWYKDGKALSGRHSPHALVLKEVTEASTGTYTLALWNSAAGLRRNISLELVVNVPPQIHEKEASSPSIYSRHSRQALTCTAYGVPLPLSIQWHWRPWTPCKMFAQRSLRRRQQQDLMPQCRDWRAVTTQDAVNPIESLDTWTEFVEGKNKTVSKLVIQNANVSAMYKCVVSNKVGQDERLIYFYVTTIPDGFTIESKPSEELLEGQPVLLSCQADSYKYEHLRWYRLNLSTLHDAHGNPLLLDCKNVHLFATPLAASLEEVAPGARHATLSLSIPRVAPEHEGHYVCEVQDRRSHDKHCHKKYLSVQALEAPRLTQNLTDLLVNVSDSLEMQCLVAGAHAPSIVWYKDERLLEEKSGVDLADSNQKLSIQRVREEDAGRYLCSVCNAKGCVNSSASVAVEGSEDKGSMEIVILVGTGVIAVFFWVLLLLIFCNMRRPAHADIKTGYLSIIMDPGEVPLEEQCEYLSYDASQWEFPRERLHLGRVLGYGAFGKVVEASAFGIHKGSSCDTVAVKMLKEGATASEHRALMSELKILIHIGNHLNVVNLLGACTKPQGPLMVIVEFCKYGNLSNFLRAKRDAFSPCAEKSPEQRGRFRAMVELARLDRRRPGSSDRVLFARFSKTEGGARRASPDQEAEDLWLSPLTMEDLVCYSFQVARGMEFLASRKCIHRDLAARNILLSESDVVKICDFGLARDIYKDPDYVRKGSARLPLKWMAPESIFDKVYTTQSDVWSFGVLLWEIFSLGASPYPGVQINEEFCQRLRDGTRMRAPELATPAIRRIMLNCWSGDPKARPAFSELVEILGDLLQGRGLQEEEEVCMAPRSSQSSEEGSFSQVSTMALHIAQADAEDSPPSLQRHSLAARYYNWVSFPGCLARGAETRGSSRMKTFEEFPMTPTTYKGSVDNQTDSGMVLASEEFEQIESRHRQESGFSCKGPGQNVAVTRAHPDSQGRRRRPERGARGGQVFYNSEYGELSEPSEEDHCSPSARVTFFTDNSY
# Chain of VEGFR1 (P17948 27-1338): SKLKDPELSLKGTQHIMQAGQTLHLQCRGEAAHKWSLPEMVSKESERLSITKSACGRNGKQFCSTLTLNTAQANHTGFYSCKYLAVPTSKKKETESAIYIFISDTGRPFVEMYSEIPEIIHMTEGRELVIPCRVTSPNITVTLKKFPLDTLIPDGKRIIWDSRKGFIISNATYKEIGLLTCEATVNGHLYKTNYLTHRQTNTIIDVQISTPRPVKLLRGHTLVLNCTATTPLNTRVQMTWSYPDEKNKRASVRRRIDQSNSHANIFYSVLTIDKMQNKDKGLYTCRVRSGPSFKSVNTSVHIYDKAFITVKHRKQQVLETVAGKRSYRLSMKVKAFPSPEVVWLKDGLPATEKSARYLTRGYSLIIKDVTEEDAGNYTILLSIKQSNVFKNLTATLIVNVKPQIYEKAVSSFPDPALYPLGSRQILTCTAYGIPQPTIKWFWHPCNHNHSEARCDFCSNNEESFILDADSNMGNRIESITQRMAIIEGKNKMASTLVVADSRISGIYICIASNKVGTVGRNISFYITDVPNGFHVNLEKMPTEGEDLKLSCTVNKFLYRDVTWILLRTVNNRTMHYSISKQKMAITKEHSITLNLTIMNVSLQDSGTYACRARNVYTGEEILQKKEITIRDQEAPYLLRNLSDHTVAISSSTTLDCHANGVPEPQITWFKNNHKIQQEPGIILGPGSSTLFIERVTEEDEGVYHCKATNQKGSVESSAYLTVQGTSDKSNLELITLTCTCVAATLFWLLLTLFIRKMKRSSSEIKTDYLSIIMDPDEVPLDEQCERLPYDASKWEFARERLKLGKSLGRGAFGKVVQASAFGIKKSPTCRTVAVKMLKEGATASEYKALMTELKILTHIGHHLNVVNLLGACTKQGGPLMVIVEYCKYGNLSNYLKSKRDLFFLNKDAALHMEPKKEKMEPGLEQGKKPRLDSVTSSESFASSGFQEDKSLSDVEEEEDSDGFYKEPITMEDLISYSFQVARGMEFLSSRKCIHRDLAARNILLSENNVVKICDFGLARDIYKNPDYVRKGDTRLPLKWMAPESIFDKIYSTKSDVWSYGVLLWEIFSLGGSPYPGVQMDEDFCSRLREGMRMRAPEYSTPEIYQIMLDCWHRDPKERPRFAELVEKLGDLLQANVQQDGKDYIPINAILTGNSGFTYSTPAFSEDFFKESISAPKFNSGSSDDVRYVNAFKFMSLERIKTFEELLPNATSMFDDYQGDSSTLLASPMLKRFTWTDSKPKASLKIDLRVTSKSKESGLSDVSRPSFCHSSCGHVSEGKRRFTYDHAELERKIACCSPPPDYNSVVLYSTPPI
# T2 sequence (P35968 20-1356): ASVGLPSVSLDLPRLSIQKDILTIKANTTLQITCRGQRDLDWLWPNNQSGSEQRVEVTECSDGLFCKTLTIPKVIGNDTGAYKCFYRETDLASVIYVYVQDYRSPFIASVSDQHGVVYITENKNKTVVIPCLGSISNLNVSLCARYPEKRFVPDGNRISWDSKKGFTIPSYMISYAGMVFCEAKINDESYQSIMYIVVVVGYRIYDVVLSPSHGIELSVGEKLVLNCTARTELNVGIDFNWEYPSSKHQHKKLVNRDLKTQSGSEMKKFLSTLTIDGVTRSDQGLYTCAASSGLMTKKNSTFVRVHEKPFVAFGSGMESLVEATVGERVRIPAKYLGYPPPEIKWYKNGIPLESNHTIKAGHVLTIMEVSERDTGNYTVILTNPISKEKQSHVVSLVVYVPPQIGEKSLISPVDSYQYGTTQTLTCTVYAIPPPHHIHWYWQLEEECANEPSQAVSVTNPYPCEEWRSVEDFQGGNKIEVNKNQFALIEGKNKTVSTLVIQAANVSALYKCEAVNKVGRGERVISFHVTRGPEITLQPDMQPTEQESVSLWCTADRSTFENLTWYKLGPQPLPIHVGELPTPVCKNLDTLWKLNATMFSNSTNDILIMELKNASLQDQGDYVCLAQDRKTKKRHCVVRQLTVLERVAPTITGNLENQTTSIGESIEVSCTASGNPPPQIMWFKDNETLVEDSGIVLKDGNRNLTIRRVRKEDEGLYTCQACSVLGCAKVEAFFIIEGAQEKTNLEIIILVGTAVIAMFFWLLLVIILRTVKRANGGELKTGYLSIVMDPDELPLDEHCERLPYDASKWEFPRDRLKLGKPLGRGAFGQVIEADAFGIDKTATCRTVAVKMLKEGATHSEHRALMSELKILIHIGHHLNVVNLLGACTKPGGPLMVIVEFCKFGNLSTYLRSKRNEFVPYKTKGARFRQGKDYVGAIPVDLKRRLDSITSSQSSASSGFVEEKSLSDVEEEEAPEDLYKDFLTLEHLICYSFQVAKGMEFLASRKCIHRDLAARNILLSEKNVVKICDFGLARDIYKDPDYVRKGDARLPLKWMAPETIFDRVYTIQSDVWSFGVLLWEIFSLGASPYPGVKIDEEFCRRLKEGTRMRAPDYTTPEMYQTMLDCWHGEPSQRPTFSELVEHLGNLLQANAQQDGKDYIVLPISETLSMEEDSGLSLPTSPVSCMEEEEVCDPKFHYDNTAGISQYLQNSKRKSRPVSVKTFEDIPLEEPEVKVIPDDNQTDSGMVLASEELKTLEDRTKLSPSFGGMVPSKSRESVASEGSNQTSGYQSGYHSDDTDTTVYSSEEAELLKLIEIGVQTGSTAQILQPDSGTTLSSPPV
smiles,measurement,setting,value
Cc1[nH]c(/C=C2\C(=O)Nc3ccc(F)cc32)c(C)c1C(=O)N[C@H]1CCN(C(=O)N(C)C)C1 [Vorolanib],IC50,"VEGFR3; S1 Dataset, read-out: IC50 VEGFR3",3.39e-08 M
same,%Activity VEGFR3,VEGFR3; 1.00E-05 M TKI,2.39%
same,%Activity VEGFR3,VEGFR3; 1.11E-06 M TKI,8.63%
same,%Activity VEGFR3,VEGFR3; 1.23E-07 M TKI,30.49%
same,%Activity VEGFR3,VEGFR3; 1.37E-08 M TKI,60.22%
same,%Activity VEGFR3,VEGFR3; 1.52E-09 M TKI,79.65%
same,%Activity VEGFR3,VEGFR3; 3.33E-06 M TKI,4.43%
same,%Activity VEGFR3,VEGFR3; 3.70E-07 M TKI,18.98%
same,%Activity VEGFR3,VEGFR3; 4.12E-08 M TKI,44.44%
same,%Activity VEGFR3,VEGFR3; 4.57E-09 M TKI,68.37%
same,%Activity VEGFR3,VEGFR3; 5.08E-10 M TKI,81.12%
same,IC50,"VEGFR3; Fig 3A inset, unit inferred, plot axes in (M), read-out: Compound IC50 data for VEGFR-3: IC50",3.39e-08 M
same,fraction unbound at 1 h,synthetic melanin,0.857
same,IC50,"VEGFR2; determined by Millipore Corporation prior to the study, read-out: VEGFR2 IC50 (used to set CAM doses)",52 nM
same,IC50,"VEGFR2; previously reported, read-out: VEGFR2 IC50",1.12 nM
same,%Activity VEGFR1,"VEGFR1; 1.00E-05 M TKI, 10μM ATP",15.82%
same,%Activity VEGFR1,"VEGFR1; 1.11E-06 M TKI, 10μM ATP",42.07%
same,%Activity VEGFR1,"VEGFR1; 1.37E-08 M TKI, 10μM ATP",89.38%
same,%Activity VEGFR1,"VEGFR1; 1.52E-09 M TKI, 10μM ATP",85.26%
same,%Activity VEGFR1,"VEGFR1; 3.33E-06 M TKI, 10μM ATP",22.84%
same,%Activity VEGFR1,"VEGFR1; 3.70E-07 M TKI, 10μM ATP",64.45%
same,%Activity VEGFR1,"VEGFR1; 4.12E-08 M TKI, 10μM ATP",79.63%
same,%Activity VEGFR1,"VEGFR1; 4.57E-09 M TKI, 10μM ATP",88.85%
same,IC50,"VEGFR1; Compound IC50 data for VEGFR-1: IC50, Fig 3A inset, unit inferred, plot axes in (M), 10μM ATP",9.44e-07 M
same,IC50,"VEGFR1; IC50 VEGFR1, 10μM ATP, S1 Dataset",9.44e-07 M
same,"Concentration, choroid",[1]; 2 days post-treatment,124 µg/g
same,"Concentration, choroid",[1]; 14 days post-treatment,52 µg/g
same,"Concentration, choroid",[1]; 29 days post-treatment,74 µg/g
same,"Concentration, choroid",[1]; 62 days post-treatment,206 µg/g
same,"Concentration, choroid",[1]; 120 days post-treatment,109 µg/g
same,"Concentration, choroid",[1]; 182 days post-treatment,200 µg/g
same,"Concentration, choroid",[1]; 240 days post-treatment,293 µg/g
same,"Concentration, retina",[1]; 2 days post-treatment,208.6 µg/g
same,"Concentration, retina",[1]; 14 days post-treatment,223.3 µg/g
same,"Concentration, retina",[1]; 29 days post-treatment,143.1 µg/g
same,"Concentration, retina",[1]; 62 days post-treatment,136.3 µg/g
same,"Concentration, retina",[1]; 120 days post-treatment,434.5 µg/g
same,"Concentration, retina",[1]; 182 days post-treatment,243.2 µg/g
same,"Concentration, retina",[1]; 240 days post-treatment,122.5 µg/g
